Laboratory results published in US12465591B2, “Use of carbamate compound for preventing, alleviating or treating diabetic peripheral neuropathy or chemotherapy-induced peripheral neuropathy” (SK BIOPHARMACEUTICALS CO., LTD., priority 2018, dated 2025).

What was measured:
[1] = test system: taxol-induced peripheral neuropathy model (mechanical allodynia); test: von Frey test of mechanical allodynia in taxol-induced peripheral neuropathy rat model; type: in vivo, rat (Sprague-Dawley)
Description: (§1) Male rats (Sprague-Dawley, 160 to 180 g, Harlan Laboratories, Israel) were purchased and subjected to acclimatization for more than 1 week at an animal laboratory. The experimental animals were maintained at a light-and-darkness cycle of 12 hours, a temperature of 20 to 24° C., a relative humidity of 40 to 60%, and free access to water and food.
(§2) The degree of pain was assessed by withdrawal (avoidance response) using von Frey filaments. Mechanical stimuli were applied to the right hind paw by the use of an up-down method, and the lowest bending force showing avoidance response was defined as the paw withdrawal threshold (J Neurosci Methods, 1994; 53 (1): 55-63). First, the rats were placed in an acrylic box (13×25×13 cm^3) located on a wire mesh installed at a height of about 35 cm from the floor and stabilized for more than 20 minutes. Among von Frey filaments with various bending forces (0.008, 0.02, 0.04, 0.07, 0.16, 0.4, 0.6, 1.0, 1.4, 2.0, 4.0, 6.0, 8.0, 10.0, 15.0, 26.0, 60.0, 100, 180 and 300 g), the stimulus was started with 2.0 g of filament. The stimulus was applied to the extent of slightly bending in the direction perpendicular to the plantar surface, and the rats were stimulated with a filament with lower or higher bending force, depending on with and without reaction.
To induce peripheral neuropathy, 2 mg/kg of taxol—which is an anticancer agent commonly used for the treatment of solid cancers—was intraperitoneally (IP) administered at a dose of 0.5 ml/kg on days 1, 3, 5, 7 and 9. To confirm the induction of allodynia, von Frey test was used, and in the study only animals having […] or less of average pain threshold of hind paws were included.
On day 13 of the experiment, only animals—in which allodynia was verified by von Frey test—were selected as experimental groups, Test Compounds (10 mg/kg and 30 mg/kg) and vehicle as the negative control were orally administered 2 hours before the pain test on day 13 and day 14. Morphine (5 mg/kg) as the positive control was administered 30 minutes prior to the pain test by intraperitoneal administration on day 13 and day 14 of the experiment. After the experiment, all animals were euthanized with CO2.
(§3) Each experimental group was compared with the negative control group by using one-way ANOVA and Tukey […] post-test (Prism® GraphPad).

[2] = test system: streptozotocin (STZ)-induced diabetic peripheral neuropathic pain rat model (mechanical allodynia); test: von Frey test of mechanical allodynia in streptozotocin (STZ)-induced diabetic peripheral neuropathic pain rat model; type: in vivo, rat (Sprague-Dawley); details: for bending force before administration: day 24, immediately before that day's dose
Description: as §1
as §2, with “reaction,” for “reaction.”
This experiment was conducted to investigate the analgesic effects of compound treatment at two different doses (10 mg/kg and 30 mg/kg) in a diabetic peripheral neuropathic pain model of rats induced by streptozotocin (STZ).
Diabetes was induced by 0.5 ml injection of streptozotocin (60 mg/kg) dissolved in citrate buffer (pH=6) into the tail vein of the rat. Animals were placed under a red lamp before injection and locked in a restraint device for administration.
In a streptozotocin (STZ)-induced diabetic peripheral neuropathic pain rat model, diabetic peripheral neuropathy was induced between 14 and 24 days after injection of STZ through the tail blood vessel of the rat. Blood glucose levels (BGL) of all animals on day 3 of the test were used to determine whether diabetes was induced, and on day 14, animals showing signs of mechanical allodynia by von Frey test were tested for BGL on day 14 and 23 of the experiment (FIG. 1).
After the experiment, all animals were euthanized with CO2.
as §3

## NC(=O)O[C@@H](Cn1ncnn1)c1ccccc1Cl [Test Compound]
[1]; day 13, 10 mg/kg orally, 2 hours before the pain test
  inhibitory effect on the induction of allodynia compared to the vehicle-administration group: a tendency to inhibit the induction of allodynia
[1]; day 13, 30 mg/kg orally, 2 hours before the pain test
  inhibitory effect on the induction of allodynia compared to the vehicle-administration group: a significant inhibitory effect on the induction of allodynia
[1]; day 14, 10 mg/kg orally, 2 hours before the pain test
  inhibitory effect on the induction of allodynia compared to the vehicle-administration group: a tendency to inhibit the induction of allodynia
[1]; day 14, 30 mg/kg orally, 2 hours before the pain test
  inhibitory effect on the induction of allodynia compared to the vehicle-administration group: a significant inhibitory effect on the induction of allodynia
[2]; 10 mg/kg, efficacy similar to 150 mg/kg of gabapentin
  pain reduction compared to the negative control: ~75%
[2]; day 14, 10 mg/kg PO
  allodynia suppressive effect compared to vehicle: a tendency of allodynia suppressive effect
  inhibition of allodynia, pre-treatment vs. post-treatment: the induction of allodynia was significantly inhibited
[2]; day 14, 30 mg/kg PO
  allodynia suppressive effect compared to vehicle: a tendency of allodynia suppressive effect
  inhibition of allodynia, pre-treatment vs. post-treatment: the induction of allodynia was significantly inhibited
[2]; day 14, 2 hours after administration, 10 mg/kg PO, vehicle 34.50±6.61 g
  mean bending force (paw withdrawal threshold, von Frey): 46.09 ± 4.48 g
[2]; day 24, 10 mg/kg PO
  allodynia suppressive effect compared to vehicle: significant allodynia suppressive effect
  inhibition of allodynia, pre-treatment vs. post-treatment: the induction of allodynia was significantly inhibited
[2]; day 24, 30 mg/kg PO
  allodynia suppressive effect compared to vehicle: significant allodynia suppressive effect
  inhibition of allodynia, pre-treatment vs. post-treatment: the induction of allodynia was significantly inhibited
[2]; day 24, after administration, daily dosing from day 14, 10 mg/kg PO, vehicle 22.85±3.86 g
  mean bending force (paw withdrawal threshold, von Frey): 44.36 ± 3.63 g
[2]; after daily dosing from day 14, 10 mg/kg PO
  bending force before administration: 25.18 ± 2.96 g
[2]; after daily dosing from day 14, 30 mg/kg PO
  bending force before administration: 23.55 ± 2.52 g

## NCC1(CC(=O)O)CCCCC1 [gabapentin, reference compound]
[2]; day 14, 150 mg/kg IP
  allodynia suppressive effect compared to vehicle: no significant allodynia suppressive effect
  inhibition of allodynia, pre-treatment vs. post-treatment: the induction of allodynia was significantly inhibited
[2]; day 14, 2 hours after administration, 150 mg/kg IP, vehicle 34.50±6.61 g
  mean bending force (paw withdrawal threshold, von Frey): 51.85 ± 4.91 g
[2]; day 24, 150 mg/kg IP
  allodynia suppressive effect compared to vehicle: significant allodynia suppressive effect
  inhibition of allodynia, pre-treatment vs. post-treatment: the induction of allodynia was significantly inhibited
[2]; day 24, after administration, daily dosing from day 14, 150 mg/kg IP, vehicle 22.85±3.86 g
  mean bending force (paw withdrawal threshold, von Frey): 45.30 ± 4.63 g
[2]; after daily dosing from day 14, 150 mg/kg IP
  bending force before administration: 25.50 ± 3.95 g

## CN1CC[C@]23c4c5ccc(O)c4O[C@H]2[C@@H](O)C=C[C@H]3[C@H]1C5 [morphine, Morphine, reference compound]
[1]; day 13, 5 mg/kg IP, 30 minutes prior to the pain test
  inhibitory effect on the induction of allodynia compared to the vehicle-administration group: a significant inhibitory effect on the induction of allodynia
[1]; day 14, 5 mg/kg IP, 30 minutes prior to the pain test
  inhibitory effect on the induction of allodynia compared to the vehicle-administration group: a significant inhibitory effect on the induction of allodynia
